{"source": "patent US20260306428A1", "about": "(The Trustees of Indiana University, priority 2023, published 2026)", "key": {"[1]": {"settings": "cited from earlier work"}, "[2]": {"system": "impacted chondrocytes", "experiment": "Chondrocyte viability by live/dead staining in impacted cartilage", "format": "cell-based, bovine", "settings": "for rescue of chondrocyte viability following AMD: AMPK activation (EX229 1 μM and 10 μM) or SIRT1 activation (SRT1720 1 μM and 5 μM); for prevention of impact-induced chondrocyte death: EX229 1 μM and 10 μM, SRT1720 1 μM and 5 μM", "description": "Bovine cartilage was cultured with metformin following an impact from a drop tower device.\nAs a preliminary assessment, live/dead staining was evaluated in impacted bovine cartilage treated with specific pharmacological activators of AMPK and SIRT1 or left untreated with appropriate vehicle (DMSO).\nOne half of the explant was assessed for cell viability via live/dead staining, and the other half was stained with MitoTracker Green and TMRM to evaluate mitochondrial health."}, "[3]": {"system": "Complex I", "settings": "in vivo; cited from earlier work"}, "[4]": {"settings": "oral, anti-diabetic treatment; cited from earlier work"}, "[5]": {"system": "mitochondria in chondrocytes", "experiment": "Mitochondrial function (TMRM / MitoTracker Green red:green ratio) in cartilage explants", "format": "cell-based, bovine"}, "[6]": {"system": "AMPK", "settings": "role: activator; cited from earlier work"}, "[7]": {"system": "caspase 3/7", "experiment": "Apoptosis via activated caspase 3/7 signalling (CellEvent) in sublethally impacted cartilage explants", "format": "cell-based, bovine", "settings": "sublethal impact, 24 hr post-impact", "from_the_text": "(§1) Bovine cartilage explants were impacted with sublethal force to evaluate the injury response in viable chondrocytes.\n(§2) Apoptosis and Oxidative Stress: Cartilage was removed from subchondral bone and stained for apoptosis via activated caspase 3/7signalling (CellEvent, Invitrogen) or ROS (CellRox, Invitrogen) 24 hr post-impact, as shown in FIG. 1A and FIG. 1B, respectively."}, "[8]": {"system": "SIRT1", "settings": "role: activator; cited from earlier work"}, "[9]": {"system": "Complex I", "settings": "role: inhibitor; cited from earlier work"}, "[10]": {"system": "reactive oxygen species (ROS)", "experiment": "Oxidative stress / ROS staining (CellRox) in sublethally impacted cartilage explants", "format": "cell-based, bovine", "settings": "sublethal impact, 24 hr post-impact, 10 mM", "from_the_text": "as §1, §2"}, "[11]": {"settings": "impacted, EX229 1 μM and 10 μM (FIG. 4A), SRT1720 1 μM and 5 μM (FIG. 4B)"}}, "data": [{"compound": "Cc1ccc(Oc2nc3cc(-c4ccc5c(ccn5C)c4)c(Cl)cc3[nH]2)cc1C(=O)O", "note": "[EX229]", "values": [{"measurement": "solubility in aqueous solutions", "setting": "[1]", "result": "low solubility"}, {"measurement": "rescue of chondrocyte viability following AMD", "setting": "[2]; impacted", "result": "rescues the AMD-induced decrease in chondrocyte viability"}, {"measurement": "cell viability (live/dead staining)", "setting": "[2]; [11]", "result": "improved cell viability in impacted chondrocytes in a dose-dependent manner"}, {"measurement": "prevention of impact-induced chondrocyte death", "setting": "[2]; impacted", "result": "neither of these activators completely prevented impact-induced chondrocyte death"}]}, {"compound": "O=C(Nc1ccccc1-c1cn2c(CN3CCNCC3)csc2n1)c1cnc2ccccc2n1", "note": "[SRT1720]", "values": [{"measurement": "solubility in aqueous solutions", "setting": "[1]", "result": "low solubility"}, {"measurement": "rescue of chondrocyte viability following AMD", "setting": "[2]; impacted", "result": "rescues chondrocyte viability following AMD"}, {"measurement": "cell viability (live/dead staining)", "setting": "[2]; [11]", "result": "improved cell viability in impacted chondrocytes in a dose-dependent manner"}, {"measurement": "prevention of impact-induced chondrocyte death", "setting": "[2]; impacted", "result": "neither of these activators completely prevented impact-induced chondrocyte death"}]}, {"compound": "CCC1(CCC(C)C)C(=O)NC(=O)NC1=O", "note": "[amobarbital]", "values": [{"measurement": "block of mitochondrial electron transport at complex I", "setting": "[3]", "result": "blocks mitochondrial electron transport at complex I to prevent chondrocyte dysfunction and apoptosis"}]}, {"compound": "CN(C)C(=N)NC(=N)N.Cl", "note": "[metformin, 1,1-dimethylbiguanide hydrochloride]", "values": [{"measurement": "side effects", "setting": "[4]", "result": "nausea, vomiting, diarrhoea, and stomach pain"}, {"measurement": "mitochondrial dysfunction in impacted chondrocytes", "setting": "[5]; impacted explants, 24 hours post-impact, 10 mM and 50 mM", "result": "rescues mitochondrial dysfunction in impacted chondrocytes in a dose-dependent manner"}, {"measurement": "mitochondrial function of impacted chondrocytes", "setting": "[5]; impacted, 125 mM, vs untreated impacted chondrocytes", "result": "not significantly different from that of untreated impacted chondrocytes"}, {"measurement": "mitochondrial function of non-impacted chondrocytes", "setting": "[5]; non-impacted, 125 mM", "result": "slightly declined"}, {"measurement": "activation of AMPK", "setting": "[6]", "result": "activates AMPK"}, {"measurement": "apoptotic signalling (caspase 3/7)", "setting": "[7]; 1 mM", "result": "only partially reduced apoptotic signalling"}, {"measurement": "apoptosis (caspase 3/7 signalling)", "setting": "[7]; 1 mM, 5 mM and 10 mM", "result": "dose-dependent decrease"}, {"measurement": "apoptosis (caspase 3/7)", "setting": "[7]; 10 mM", "result": "completely suppressed apoptosis"}, {"measurement": "activation of SIRT1", "setting": "[8]", "result": "activates AMPK and SIRT1"}, {"measurement": "inhibition of Complex I", "setting": "[9]", "result": "inhibiting Complex I"}, {"measurement": "oxidative stress (ROS)", "setting": "[10]", "result": "full suppression of oxidative stress"}, {"measurement": "cell viability (live/dead staining)", "setting": "[2]; drop tower impact, 24 hr post-impact, 10 mM", "result": "improved cell viability"}, {"measurement": "cell viability (live/dead staining)", "setting": "[2]; drop tower impact, 24 hr post-impact, 50 mM", "result": "completely rescue impacted chondrocytes"}, {"measurement": "cell viability (live/dead staining), data not shown", "setting": "[2]; impacted bovine cartilage, 125 mM, trends similar to mitochondrial function", "result": "showed similar trends"}]}]}
